# Measurements from US6770596B1, “Fused tricyclic compounds, process for their preparation, and herbicidal compositions containing them” (Ishihara Sangyo Kaisha Ltd., priority 2002, dated 2004).
# Key:
# Type in all cases: in vivo
# [1] = test system: wheat (Triticum aestivum); experiment: Post-emerge test, crop damage wheat
# Text: (§1) A standard greenhouse herbicide activity screening system was used to evaluate the herbicidal efficacy and crop safety of these test compounds. Seven broadleaf weed species including redroot pigweed (Amaranthus retroflexus, AMR), velvetleaf (Abutilon theophrasti, ABT), sicklepod (Cassia obtusifolia, CAO), ivyleaf morningglory (Ipomoea hederacea, IPH), lambsquarters (Chenopodium album, CHA), common ragweed (Ambrosia artemisiifolia L., AML), and cocklebur (Xanthium strumariunt, XAS) were used as test species. Four grass weed species including green foxtail (Setaria viridis, SEV), barnyardgrass (Echinachloa crus-galli, ECC), johnsongrass (Sorghum halepense, SOH), and large crabgrass (Digitaria sanguinalis, DIS) were also used. In addition, four crop species, field corn (Zea mays L., var. Dekalb 535, CORN), soybean (Glycine max L., var. Pella 86, SOY), upland rice (Oryza sp., var.Tebonnet, RICE), and wheat (Triticum aestivum) were included all plants were grown in 10 cm square plastic pots which were filled with a sandy loam soil mix.
# (§2) For pre-emerge tests, seeds were planted one day prior to application of the test compounds. All test compounds were dissolved in acetone and applied to the test pots in a volume of 187 l/ha. Test materials were applied at rates ranging from 8 g ai/ha to 1000 g ai/ha using a track sprayer equipped with a TJ8001E even flow flat fan spray nozzle. This application simulates a typical commercial field herbicide application.
# (§3) For post-emerge tests, seeds were planted 8-21 days prior to the test to allow emergence and good foliage development prior to application of the test substances. At the time of the post-emerge application, plants of all species were usually at the 2-3 leaf stage of development. In the postemerge test, a commercial non-ionic surfactant was also included (0.25% v/v) to enhance wetting of the leaf surfaces of target plants.
# (§4) At 14 days after application of the test materials, phytotoxicity ratings were recorded. A rating scale of 0-100 was used for both pre and post emerge tests as previously described in Research Methods in Weed Science, 2nd edition, B, Truelove, Ed., Southern Weed Science Society, Auburn University, Auburn, Ala., 1977. Briefly, “0” corresponds to no damage and “100” corresponds to complete death of all plants in the test unit. This scale was used both to determine efficacy against weed species and damage to crop species. Herbicide activity data for various compounds of this invention, which are shown by compound No. in Tables 1-3, are shown in Tables 5 and 6.
# [2] = test system: barnyardgrass (Echinachloa crus-galli, ECC); experiment: Pre-emerge test, barnyardgrass; conditions: 250 g ai/ha, 14 days after application, rating scale 0-100 (0 no damage, 100 complete death)
# Text: as §1, §2, §4
# [3] = test system: sicklepod (Cassia obtusifolia, CAO); experiment: Post-emerge test, sicklepod; conditions: 250 g ai/ha, 14 days after application, rating scale 0-100 (0 no damage, 100 complete death)
# Text: as §1, §2, §3, §4
# [4] = test system: redroot pigweed (Amaranthus retroflexus, AMR); experiment: Post-emerge test, redroot pigweed; conditions: 250 g ai/ha, 14 days after application, rating scale 0-100 (0 no damage, 100 complete death)
# Text: as §1, §2, §3, §4
# [5] = test system: barnyardgrass (Echinachloa crus-galli, ECC); experiment: Post-emerge test, barnyardgrass; conditions: 250 g ai/ha, 14 days after application, rating scale 0-100 (0 no damage, 100 complete death)
# Text: as §1, §2, §3, §4
# [6] = test system: field corn (Zea mays L., var. Dekalb 535, CORN); experiment: Post-emerge test, crop damage field corn
# Text: as §1, §2, §3, §4
# [7] = test system: common ragweed (Ambrosia artemisiifolia L., AML); experiment: Post-emerge test, common ragweed; conditions: 250 g ai/ha, 14 days after application, rating scale 0-100 (0 no damage, 100 complete death)
# Text: as §1, §2, §3, §4
# [8] = test system: upland rice (Oryza sp., var.Tebonnet, RICE); experiment: Post-emerge test, crop damage upland rice
# Text: as §1, §2, §3, §4
# [9] = test system: common ragweed (Ambrosia artemisiifolia L., AML); experiment: Pre-emerge test, common ragweed; conditions: 250 g ai/ha, 14 days after application, rating scale 0-100 (0 no damage, 100 complete death)
# Text: as §1, §2, §4
# [10] = test system: redroot pigweed (Amaranthus retroflexus, AMR); experiment: Pre-emerge test, redroot pigweed; conditions: 250 g ai/ha, 14 days after application, rating scale 0-100 (0 no damage, 100 complete death)
# Text: as §1, §2, §4
# [11] = test system: ivyleaf morningglory (Ipomoea hederacea, IPH); experiment: Pre-emerge test, ivyleaf morningglory; conditions: 250 g ai/ha, 14 days after application, rating scale 0-100 (0 no damage, 100 complete death)
# Text: as §1, §2, §4
# [12] = test system: velvetleaf (Abutilon theophrasti, ABT); experiment: Pre-emerge test, velvetleaf; conditions: 250 g ai/ha, 14 days after application, rating scale 0-100 (0 no damage, 100 complete death)
# Text: as §1, §2, §4
# [13] = test system: johnsongrass (Sorghum halepense, SOH); experiment: Pre-emerge test, johnsongrass; conditions: 250 g ai/ha, 14 days after application, rating scale 0-100 (0 no damage, 100 complete death)
# Text: as §1, §2, §4
# [14] = test system: soybean (Glycine max L., var. Pella 86, SOY); experiment: Pre-emerge test, crop damage soybean
# Text: as §1, §2, §4
# [15] = test system: upland rice (Oryza sp., var.Tebonnet, RICE); experiment: Pre-emerge test, crop damage upland rice
# Text: as §1, §2, §4
# [16] = test system: sicklepod (Cassia obtusifolia, CAO); experiment: Pre-emerge test, sicklepod; conditions: 250 g ai/ha, 14 days after application, rating scale 0-100 (0 no damage, 100 complete death)
# Text: as §1, §2, §4
# [17] = test system: wheat (Triticum aestivum); experiment: Pre-emerge test, crop damage wheat
# Text: as §1, §2, §4
# [18] = test system: field corn (Zea mays L., var. Dekalb 535, CORN); experiment: Pre-emerge test, crop damage field corn
# Text: as §1, §2, §4
# [19] = test system: cocklebur (Xanthium strumariunt, XAS); experiment: Pre-emerge test, cocklebur; conditions: 250 g ai/ha, 14 days after application, rating scale 0-100 (0 no damage, 100 complete death)
# Text: as §1, §2, §4
# [20] = test system: ivyleaf morningglory (Ipomoea hederacea, IPH); experiment: Post-emerge test, ivyleaf morningglory; conditions: 250 g ai/ha, 14 days after application, rating scale 0-100 (0 no damage, 100 complete death)
# Text: as §1, §2, §3, §4
# [21] = test system: lambsquarters (Chenopodium album, CHA); experiment: Pre-emerge test, lambsquarters; conditions: 250 g ai/ha, 14 days after application, rating scale 0-100 (0 no damage, 100 complete death)
# Text: as §1, §2, §4
# [22] = test system: cocklebur (Xanthium strumariunt, XAS); experiment: Post-emerge test, cocklebur; conditions: 250 g ai/ha, 14 days after application, rating scale 0-100 (0 no damage, 100 complete death)
# Text: as §1, §2, §3, §4
# [23] = test system: large crabgrass (Digitaria sanguinalis, DIS); experiment: Post-emerge test, large crabgrass; conditions: 250 g ai/ha, 14 days after application, rating scale 0-100 (0 no damage, 100 complete death)
# Text: as §1, §2, §3, §4
# [24] = test system: lambsquarters (Chenopodium album, CHA); experiment: Post-emerge test, lambsquarters; conditions: 250 g ai/ha, 14 days after application, rating scale 0-100 (0 no damage, 100 complete death)
# Text: as §1, §2, §3, §4
# [25] = test system: johnsongrass (Sorghum halepense, SOH); experiment: Post-emerge test, johnsongrass; conditions: 250 g ai/ha, 14 days after application, rating scale 0-100 (0 no damage, 100 complete death)
# Text: as §1, §2, §3, §4
# [26] = test system: velvetleaf (Abutilon theophrasti, ABT); experiment: Post-emerge test, velvetleaf; conditions: 250 g ai/ha, 14 days after application, rating scale 0-100 (0 no damage, 100 complete death)
# Text: as §1, §2, §3, §4
# [27] = test system: green foxtail (Setaria viridis, SEV); experiment: Pre-emerge test, green foxtail; conditions: 250 g ai/ha, 14 days after application, rating scale 0-100 (0 no damage, 100 complete death)
# Text: as §1, §2, §4
# [28] = test system: large crabgrass (Digitaria sanguinalis, DIS); experiment: Pre-emerge test, large crabgrass; conditions: 250 g ai/ha, 14 days after application, rating scale 0-100 (0 no damage, 100 complete death)
# Text: as §1, §2, §4
# [29] = test system: green foxtail (Setaria viridis, SEV); experiment: Post-emerge test, green foxtail; conditions: 250 g ai/ha, 14 days after application, rating scale 0-100 (0 no damage, 100 complete death)
# Text: as §1, §2, §3, §4
# [30] = test system: soybean (Glycine max L., var. Pella 86, SOY); experiment: Post-emerge test, crop damage soybean
# Text: as §1, §2, §3, §4
# [31] = post-emerge, 250 g ai/ha, 14 days after application, rating scale 0-100 (0 no damage, 100 complete death)
# [32] = pre-emerge, 250 g ai/ha, 14 days after application, rating scale 0-100 (0 no damage, 100 complete death)
# [33] = Triticum aestivum (wheat), in vivo, 14 days
# [34] = var. Dekalb 535, Zea mays (field corn), in vivo, 14 days
# [35] = var. Tebonnet, Oryza sp. (upland rice), in vivo, 14 days
# [36] = var. Pella 86, Glycine max (soybean), in vivo, 14 days
Structure (SMILES),Pre-emerge Herbicidal Activity ECC (phytotoxicity rating) [2],Post-emerge Herbicidal Activity CAO (phytotoxicity rating) [3],Post-emerge Herbicidal Activity AMR (phytotoxicity rating) [4],Post-emerge Herbicidal Activity ECC (phytotoxicity rating) [5],Post-emerge Herbicidal Activity AML (phytotoxicity rating) [7],Pre-emerge Herbicidal Activity AML (phytotoxicity rating) [9],Pre-emerge Herbicidal Activity AMR (phytotoxicity rating) [10],Pre-emerge Herbicidal Activity IPH (phytotoxicity rating) [11],Pre-emerge Herbicidal Activity ABT (phytotoxicity rating) [12],Pre-emerge Herbicidal Activity SOH (phytotoxicity rating) [13],Pre-emerge Herbicidal Activity CAO (phytotoxicity rating) [16],Pre-emerge Herbicidal Activity XAS (phytotoxicity rating) [19],Post-emerge Herbicidal Activity IPH (phytotoxicity rating) [20],Pre-emerge Herbicidal Activity CHA (phytotoxicity rating) [21],Post-emerge Herbicidal Activity XAS (phytotoxicity rating) [22],Post-emerge Herbicidal Activity DIS (phytotoxicity rating) [23],Post-emerge Herbicidal Activity CHA (phytotoxicity rating) [24],Post-emerge Herbicidal Activity SOH (phytotoxicity rating) [25],Post-emerge Herbicidal Activity ABT (phytotoxicity rating) [26],Pre-emerge Herbicidal Activity SEV (phytotoxicity rating) [27],further results
CC1Oc2cc(F)c(-c3nn(C)c(OC(F)F)c3Cl)c3c2N(CC(=O)N3)C1=O (stereo not drawn) [1-56],100,100,100,100,100,100,100,100,100,100,100,100,100,100,100,100,100,85,100,100,"Post-emerge crop damage WHEAT (phytotoxicity rating) [1, 31]: 30; Post-emerge crop damage CORN (phytotoxicity rating) [6, 31]: 20; Post-emerge crop damage RICE (phytotoxicity rating) [8, 31]: 99; Pre-emerge crop damage SOY (phytotoxicity rating) [14, 32]: 15; Pre-emerge crop damage RICE (phytotoxicity rating) [15, 32]: 75; Pre-emerge crop damage WHEAT (phytotoxicity rating) [17, 32]: 55; Pre-emerge crop damage CORN (phytotoxicity rating) [18, 32]: 50; Pre-emerge Herbicidal Activity DIS (phytotoxicity rating) [28]: 100; Post-emerge Herbicidal Activity SEV (phytotoxicity rating) [29]: 100; Post-emerge crop damage SOY (phytotoxicity rating) [30, 31]: 100"
"C[C@@H]1Oc2cc(F)c(-c3nn(C)c(C(F)(F)F)c3Cl)c3c2N(CC(=O)N3)C1=O [1-49, 8-[4-Chloro-1-methyl-5-(trifluoromethyl)-1H-pyrazol-3-yl]-9-fluoro-2-S-methyl-5H-pyrazino[1,2,3-de]-1,4-benzoxazine-3,6(2H, 7H)-dione]",100,100,100,100,80,100,100,100,100,100,100,85,100,100,100,99,100,65,100,100,"Post-emerge crop damage WHEAT (phytotoxicity rating) [1, 31]: 50; Post-emerge crop damage CORN (phytotoxicity rating) [6, 31]: 35; Post-emerge crop damage RICE (phytotoxicity rating) [8, 31]: 85; Pre-emerge crop damage SOY (phytotoxicity rating) [14, 32]: 50; Pre-emerge crop damage RICE (phytotoxicity rating) [15, 32]: 70; Pre-emerge crop damage WHEAT (phytotoxicity rating) [17, 32]: 60; Pre-emerge crop damage CORN (phytotoxicity rating) [18, 32]: 70; Pre-emerge Herbicidal Activity DIS (phytotoxicity rating) [28]: 100; Post-emerge Herbicidal Activity SEV (phytotoxicity rating) [29]: 100; Post-emerge crop damage SOY (phytotoxicity rating) [30, 31]: 80"
"Cn1nc(-c2c(F)cc3c4c2NC(=O)CN4C(=O)CO3)c(Cl)c1C(F)(F)F [1-13, 8-[4-Chloro-1-methyl-5-(trifluoromethyl)-1H-pyrazol-3-yl]-9-fluoro-5H-pyrazino[1,2,3-de]-1,4-benzoxazine-3,6(2H, 7H)-dione]",100,100,100,99,100,100,100,100,100,100,100,80,100,100,100,55,100,100,100,100,"Post-emerge crop damage WHEAT (phytotoxicity rating) [1, 33]: 25; Post-emerge crop damage CORN (phytotoxicity rating) [6, 34]: 25; Post-emerge crop damage RICE (phytotoxicity rating) [8, 35]: 99; Pre-emerge crop damage SOY (phytotoxicity rating) [14, 36]: 50; Pre-emerge crop damage RICE (phytotoxicity rating) [15, 35]: 90; Pre-emerge crop damage WHEAT (phytotoxicity rating) [17, 33]: 65; Pre-emerge crop damage CORN (phytotoxicity rating) [18, 34]: 90; Pre-emerge Herbicidal Activity DIS (phytotoxicity rating) [28]: 100; Post-emerge Herbicidal Activity SEV (phytotoxicity rating) [29]: 100; Post-emerge crop damage SOY (phytotoxicity rating) [30, 36]: 100"
